Data from patent US20070149546A1, “4-Anilino-quinazoline derivatives as antiproliferative agents” (priority 2003, published 2007).
Counter-ions that a name gives are not always drawn.

Columns and labels:
EGFR kinase = molecular target: T1, EGFR kinase (Homo sapiens, UniProt P00533); assay: Protein tyrosine kinase phosphorylation assay, Test (a): EGFR; assay type: biochemical; settings: inhibition of phosphorylation of a tyrosine containing polypeptide substrate by EGFR kinase; ATP at Km
T1 construct: Recombinant intracellular fragments of EGFR and erbB2; made in house; host or cells: baculovirus/Sf21 insect cells
T1 sequence (P00533 669-1210 limits assumed): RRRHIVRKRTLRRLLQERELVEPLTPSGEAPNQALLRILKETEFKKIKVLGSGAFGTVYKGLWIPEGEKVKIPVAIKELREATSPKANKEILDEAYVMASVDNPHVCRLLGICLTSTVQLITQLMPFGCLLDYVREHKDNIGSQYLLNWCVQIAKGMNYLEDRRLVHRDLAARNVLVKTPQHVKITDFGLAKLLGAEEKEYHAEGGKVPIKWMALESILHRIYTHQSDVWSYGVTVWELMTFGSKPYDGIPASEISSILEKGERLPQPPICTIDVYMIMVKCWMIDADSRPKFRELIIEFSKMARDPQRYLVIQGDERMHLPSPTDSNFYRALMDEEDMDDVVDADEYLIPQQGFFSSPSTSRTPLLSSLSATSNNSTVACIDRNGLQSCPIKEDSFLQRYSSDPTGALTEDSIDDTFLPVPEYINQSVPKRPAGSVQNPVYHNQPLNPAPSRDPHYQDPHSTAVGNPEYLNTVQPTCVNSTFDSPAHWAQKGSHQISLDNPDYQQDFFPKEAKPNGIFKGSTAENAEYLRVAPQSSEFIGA
Procedure: (§1) This test measures the ability of a test compound to inhibit the phosphorylation of a tyrosine containing polypeptide substrate by an enzyme selected from the EGFR kinase and erbB2 kinase.
(§2) Recombinant intracellular fragments of EGFR and erbB2 (accession numbers X00588 and X03363 respectively) were cloned and expressed in the baculovirus/Sf21 system. Lysates were prepared from these cells by treatment with ice-cold lysis buffer (20 mM N-2-hydroxyethylpiperizine-N′-2-ethanesulfonic acid (HEPES) pH 7.5, 150 mM NaCl, 10% glycerol, 1% Triton X-100, 1.5 mM MgCl2, 1 mM ethylene glycol-bis(β-aminoethyl ether) N′,N′,N′,N′-tetraacetic acid (EGTA), plus protease inhibitors and then cleared by centrifugation.
(§3) Constitutive kinase activity of these recombinant proteins was determined by their ability to phosphorylate a synthetic peptide (made up of a random co-polymer of Glutamic Acid, Alanine and Tyrosine in the ratio of 6:3:1). Specifically, Maxisorb™ 96-well immunoplates were coated with synthetic peptide (0.2 μg of peptide in a 200 μl phosphate buffered saline (PBS) solution and incubated at 4° C. overnight). Plates were washed in 50 mM HEPES pH 7.4 at room temperature to remove any excess unbound synthetic peptide. […] Reactions were terminated by the removal of the liquid components of the assay followed by washing of the plates with PBS-T (phosphate buffered saline with 0.5% Tween 20).
(§4) The immobilised phospho-peptide product of the reaction was detected by immunological methods. Firstly, plates were incubated for 90 minutes at room temperature with anti-phosphotyrosine primary antibodies that were raised in the mouse (4G10 from Upstate Biotechnology). Following extensive washing, plates were treated with Horseradish Peroxidase (HRP) conjugated sheep anti-mouse secondary antibody (NXA931 from Amersham) for 60 minutes at room temperature. After further washing, HRP activity in each well of the plate was measured colorimetrically using 22′-Azino-di-[3-ethylbenzthiazoline sulfonate (6)] diammonium salt crystals (ABTS™ from Roche) as a substrate.
(§5) Kinase inhibition for a given compound was expressed as an IC50 value. […] The range of phosphorylation was calculated from the positive (vehicle plus ATP) and negative (vehicle minus ATP) control values.

erbB2 [1] = molecular target: T2, erbB2 (Homo sapiens, UniProt P04626); assay: Protein tyrosine kinase phosphorylation assay, Test (a): erbB2; assay type: biochemical; parameters: Recombinant intracellular fragments of EGFR and erbB2; made in house; host or cells: baculovirus/Sf21 insect cells; settings: inhibition of phosphorylation of a tyrosine containing polypeptide substrate by erbB2 kinase; ATP at Km
Procedure: as §1, §2, §3, §4, §5
Target sequence in this assay (P04626 676-1255 limits assumed): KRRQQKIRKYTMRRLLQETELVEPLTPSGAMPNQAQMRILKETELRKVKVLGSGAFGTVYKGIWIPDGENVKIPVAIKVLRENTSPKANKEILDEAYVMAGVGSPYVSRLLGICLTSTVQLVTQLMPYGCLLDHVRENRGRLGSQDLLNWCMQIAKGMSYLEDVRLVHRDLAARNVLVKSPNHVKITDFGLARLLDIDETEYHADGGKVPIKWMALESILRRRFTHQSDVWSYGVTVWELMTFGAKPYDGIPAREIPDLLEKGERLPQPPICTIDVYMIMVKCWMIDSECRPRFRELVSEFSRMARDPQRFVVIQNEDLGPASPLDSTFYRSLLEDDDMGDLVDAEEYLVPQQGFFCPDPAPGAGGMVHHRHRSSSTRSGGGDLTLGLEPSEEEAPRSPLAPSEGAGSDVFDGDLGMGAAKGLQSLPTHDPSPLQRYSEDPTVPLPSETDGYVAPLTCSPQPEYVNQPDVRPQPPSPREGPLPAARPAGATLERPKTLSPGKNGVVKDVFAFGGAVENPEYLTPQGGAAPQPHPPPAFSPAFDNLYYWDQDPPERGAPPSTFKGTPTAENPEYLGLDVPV

erbB2 [2] = molecular target: T2, erbB2; assay: Clone 24 phospho-erbB2 cell assay, Test (e); assay type: cell-based; parameters: a cell line that overexpresses full length wild type erbB2 protein; expressed in transfected cells; host or cells: MCF7 (breast carcinoma) derived Clone 24 cells; settings: inhibition of phosphorylation of erbB2 in a MCF7 (breast carcinoma) derived cell line (Clone 24)
Procedure: The cells were resuspended in Growth Medium.
3 days later, Growth Medium was removed from the wells and replaced with 100 ul Assay Medium (phenol red free DM , 2 mM glutamine, 1.2 mg/ml G418) either with or without erbB inhibitor compound. Plates were returned to the incubator for 4 hours and then 20 μl of 20% formaldehyde solution in PBS was added to each well and the plate was left at room temperature for 30 minutes. This fixative solution was removed with a multichannel pipette, 100 μl of PBS was added to each well and then removed with a multichannel pipette and then 50 μl PBS was added to each well. Plates were then sealed and stored for up to 2 weeks at 4° C.
Immunostaining was performed at room temperature. Wells were washed once with 200 μl PBS/Tween 20 (made by adding 1 sachet of PBS/Tween dry powder (Sigma, No. P3563) to 1 L of double distilled H2O) using a plate washer then 200 μl Blocking Solution (5% Marvel dried skimmed milk (Nestle) in PBS/Tween 20) was added and incubated for 10 minutes. Blocking Solution was removed using a plate washer and 200 μl of 0.5% Triton X-100/PBS was added to permeabalise the cells. After 10 minutes, the plate was washed with 200μl PBS/Tween 20 and then 200 μl Blocking Solution was added once again and incubated for 15 minutes. […] Then this primary antibody solution was removed from the wells using a plate washer followed by two 200 μl PBS/Tween 20 washes using a plate washer. […] From now onwards, wherever possible, plates were protected from light exposure, at this stage by sealing with black backing tape. The plates were incubated for 45 minutes and then the secondary antibody solution was removed from the wells followed by two 200 ul PBS/Tween 20 washes using a plate washer. Then 100 μl PBS was added to each plate, incubated for 10 minutes and then removed using a plate washer. Then a further 100 μl PBS was added to each plate and then, without prolonged incubation, removed using a plate washer. Then 50 μl of PBS was added to each well and plates were resealed with black backing tape and stored for up to 2 days at 4° C. before analysis.
The Fluorescence signal is each well was measured using an Acumen Explorer Instrument (Acumen Bioscience Ltd.), a plate reader that can be used to rapidly quantitate features of images generated by laser-scanning. The instrument was set to measure the number of fluorescent objects above a pre-set threshold value and this provided a measure of the phosphorylation status of erbB2 protein. Fluorescence dose response data obtained with each compound was exported into a suitable software package (such as Origin) to perform curve fitting analysis. Inhibition of erbB2 phosphorylation was expressed as an IC50 value.
Target sequence in this assay (P04626 23-1255): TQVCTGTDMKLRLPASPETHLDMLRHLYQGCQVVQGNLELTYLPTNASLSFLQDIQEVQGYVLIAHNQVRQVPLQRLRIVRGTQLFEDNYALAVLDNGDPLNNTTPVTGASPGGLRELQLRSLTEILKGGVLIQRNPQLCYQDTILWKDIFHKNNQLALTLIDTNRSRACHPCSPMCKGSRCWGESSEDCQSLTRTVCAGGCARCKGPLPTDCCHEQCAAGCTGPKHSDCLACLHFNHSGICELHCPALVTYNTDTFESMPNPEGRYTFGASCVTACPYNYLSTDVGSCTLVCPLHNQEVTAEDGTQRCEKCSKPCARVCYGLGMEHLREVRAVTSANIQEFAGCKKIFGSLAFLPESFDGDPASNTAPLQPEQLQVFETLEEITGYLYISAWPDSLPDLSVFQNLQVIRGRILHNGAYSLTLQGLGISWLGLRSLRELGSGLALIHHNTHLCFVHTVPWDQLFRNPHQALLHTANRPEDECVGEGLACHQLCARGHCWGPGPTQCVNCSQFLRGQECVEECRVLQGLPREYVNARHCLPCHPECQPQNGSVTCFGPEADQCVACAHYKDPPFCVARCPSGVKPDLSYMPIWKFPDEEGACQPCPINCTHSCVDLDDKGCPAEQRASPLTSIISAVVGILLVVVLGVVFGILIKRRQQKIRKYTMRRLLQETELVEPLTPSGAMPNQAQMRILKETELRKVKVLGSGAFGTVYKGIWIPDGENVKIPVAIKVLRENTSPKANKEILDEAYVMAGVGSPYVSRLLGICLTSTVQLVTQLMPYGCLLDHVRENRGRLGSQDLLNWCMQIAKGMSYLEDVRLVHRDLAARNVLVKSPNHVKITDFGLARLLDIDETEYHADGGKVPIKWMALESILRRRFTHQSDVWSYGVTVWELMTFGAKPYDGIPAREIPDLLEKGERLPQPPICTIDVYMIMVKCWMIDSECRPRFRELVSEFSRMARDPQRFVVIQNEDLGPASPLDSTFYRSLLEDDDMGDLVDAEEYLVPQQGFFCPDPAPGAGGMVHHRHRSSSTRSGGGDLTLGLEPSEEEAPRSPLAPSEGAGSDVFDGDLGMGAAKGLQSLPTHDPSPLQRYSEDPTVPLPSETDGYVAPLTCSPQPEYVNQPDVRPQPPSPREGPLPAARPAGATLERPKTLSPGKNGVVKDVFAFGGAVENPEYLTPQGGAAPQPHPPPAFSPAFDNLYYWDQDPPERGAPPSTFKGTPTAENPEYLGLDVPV

Row | Compound | IC50 (EGFR kinase) [µM] | IC50 (erbB2 [1]) [µM] | IC50 (erbB2 [2]) [µM]
1 | CN(C)CC(C)(C)Oc1cccc2ncnc(Nc3ccc(OCc4ccccn4)c(Cl)c3)c12 [Example 56, N-[3-Chloro-4-(pyridin-2-ylmethoxy)phenyl]-5-[2-(dimethylamino)-1,1-dimethylethoxy]quinazolin-4-amine] | 0.49 | 0.002 | 0.002
2 | COc1cc(Nc2ncnc3cccc(OC(C)CN(C)C)c23)ccc1Oc1ccccc1 (stereo not drawn) [Example 54, 5-[2-(Dimethylamino)-1-methylethoxy]-N-(3-methoxy-4-phenoxyphenyl)quinazolin-4-amine] | 4.3 | 0.002 | 0.003
3 | COc1cc(Nc2ncnc3cccc(OCCN(C)C)c23)ccc1OCc1cc(C)on1 [Example 37, 5-[2-(Dimethylamino)ethoxy]-N-{3-methoxy-4-[(5-methylisoxazol-3-yl)methoxy]phenyl}quinazolin-4-amine] | 8.4 | 0.017 | 0.003

Now those with a lower IC50 (EGFR kinase), led by results:

Row | IC50 (EGFR kinase) [µM] | IC50 (erbB2 [1]) [µM] | IC50 (erbB2 [2]) [µM] | Compound
4 | 0.068 | 0.002 | 0.001 | C[C@H](CN(C)C)Oc1cccc2ncnc(Nc3ccc(OCc4cscn4)c(Cl)c3)c12 [Example 23]
5 | 0.064 | 0.005 | 0.001 | C[C@H](CN(C)C)Oc1cccc2ncnc(Nc3ccc(Sc4nccn4C)c(Cl)c3)c12 [Example 53, N-{3-Chloro-4-[(1-methyl-1H-imidazol-2-yl)thio]phenyl}-5-[(1R)-2-(dimethylamino)-1-methylethoxy]quinazolin-4-amine dihydrochloride]
